From article PMC5650372 (Oncotarget, 2017)

Target: T1, DNA-PKcs, XRCC4 and DNA ligase IV on DNA (Homo sapiens, UniProt P78527)
T1 construct: endogenous in cells; host or cells: MCF7 nuclear extract
Test: DNA end binding assay (MCF7 nuclear extract)
Assay type: biochemical
Details: 5 μM, MCF7 nuclear extract, 10, 30, 60 minutes
Description: One kb of DNA fragment, including an EcoRI sequence in the middle, was amplified by PCR using pEGFP as a template and a pair of biotinylated EGFP primers (5′-biotin-[…]-3′ and 5′-biotin-[…]-3′: Valuegene, San Diego, CA). The amplified DNA fragment was cleaved by EcoRI to produce two 0.5 kb biotinylated DNA fragments, and was purified using the QIAquick PCR purification kit (Qiagen). […] An aliquot of the reaction was removed at each time point to separate the supernatant and the beads. The supernatant was subjected to SDS-PAGE and immunoblotting with indicated antibodies. The beads were washed twice with 250 μL of IP buffer (25 mM Hepes-KOH, pH 7.5, 100 mM NaCl, 20% glycerol, 5 mM EDTA, 1 mM DTT, 0.05% Nonidet P-40, 10 mM NaF, and protease inhibitor mixture) and subjected to SDS-PAGE and immunoblotting with indicated antibodies.

CCN1C(=O)CNc2ncc(-c3ccc(-c4nc[nH]n4)nc3C)nc21 [CC-115, 1-ethyl-7-(2-methyl-6-(1H-1,2,4-triazol-3-yl)pyridin-3yl)-3,4-dihydropyrazino[2,3-b]pyrazin-2(1H)-one]
DNA-PKcs, XRCC4 and DNA ligase IV bound to DNA over time: retained from 10 minutes through the end of the reaction at 60 minutes
